Experimental data reported in patent US9139581B2 (PORTOLA PHARMACEUTICALS, INC., priority 2008, dated 2015).

These compounds were tested against T1, full length active recombinant SYK enzyme (Homo sapiens, UniProt P43405) (assay: Inhibition of Syk tyrosine phosphorylation activity (LANCE TR-FRET)). Conditions: Table 3; 1 nM SYK, 100 μM ATP; read-out: Syk IC50 code.
T1 construct: full length active recombinant SYK enzyme (Millipore, Calif.); purchased Millipore
Format: biochemical
Protocol: The in vitro and in vivo human syk activities of the inventive compounds can be determined by various procedures known in the art, such as a test for their ability to inhibit the activity of human plasma syk. […] Inhibition of Syk Tyrosine Phosphorylation Activity Potency of candidate molecules for inhibiting syk tyrosine phosphorylation activity is assessed by measuring the ability of a test compound to inhibit syk-mediated tyrosine phosphorylation of a syk-specific substrate. SYK tyrosine phosphorylation activity is measured using the LANCETM Technology developed by Perkin Elmer Life and Analytical Sciences (Boston, Mass.). LANCETM refers to homogeneous time resolved fluorometry applications using techniques such as time-resolved fluorescence resonance energy transfer assay (TR-FRET) (see generally for procedures in Perkin Elmer Application Note-How to Optimize a Tyrosine Kinase Assay Using Time Resolved Fluorescence-Based LANCE Detection, wwww.perkinelmer.com/lifesciences). The assay principle involves detection of a phosphorylated substrate using energy transfer from a phosphospecific europium-labeled antibody to streptavidin-allophycocyanin as an acceptor. To test the ability of candidate molecules to inhibit SYK tyrosine phosphorylation activity, molecules are reconstituted in 30% DMSO and serially diluted 1:3 with the final dilution containing DMSO in the absence of the candidate molecule. The final DMSO concentration in the assay is 3%. Kinase assays are performed as a two part reaction. The first reaction is a kinase reaction and which comprises of a candidate molecule, full length active recombinant SYK enzyme (Millipore, Calif.) and biotin-labeled SYK-specific substrate biotin-[…]-OH. The second reaction involves termination of the kinase reaction and the simultaneous addition of the detection reagents-europium-labeled anti-phosphotyrosine reagent (Eu-W1024-PY100, Perkin Elmer, Boston, Mass.) and Streptavidin-Allophycocyanin detection reagent (SA-APC, Prozyme, Calif.). The kinase reaction is performed in a black U-bottom 96-well microtitre plate. […] The reaction is allowed to proceed for 1 hour at room temperature. […] The detection reagents are added to the reaction mixture at the following dilutions-1:500 for Eu-W1024-PY100 and 1:250 for SA-APC. The kinase reaction is terminated by the addition of 50 μL quench buffer containing the detection reagents. The detection is allowed to proceed for 1 hr at room temperature. Detection of the phosphorlated substrate in the absence and presence of inhibitors is measured in the TR-FRET instrument, Analyst HT ([…], Sunnyvale, Calif.) and the condition for measurements are set up using CriterionHost Release 2.0 ([…], Sunnyvale, Calif.). […] IC50s were derived by non-linear regression analysis.
For `CC(=O)N1CCN(c2ccc(Nc3nc(NC4CCC(N)CC4)c4cc[nH]c4n3)cc2)CC1` (stereo not drawn) [Example 66, 1-(4-(4-(4-(4-aminocyclohexylamino)-7H-pyrrolo[2,3-d]pyrimidin-2-ylamino)phenyl)piperazin-1-yl)ethanone], the IC50 was 10 to 100 nM.
With `CC(=O)N(C)c1ccc(Nc2nc(NCCCCCN)c3c(Br)c[nH]c3n2)cc1` [Example 67, N-(4-(4-(5-aminopentylamino)-5-bromo-7H-pyrrolo[2,3-d]pyrimidin-2-ylamino)phenyl)-N-methylacetamide] the IC50 was over 1000 nM.
`CC(=O)N(C)c1ccc(Nc2nc(Nc3cccc(S(N)(=O)=O)c3)c3cc[nH]c3n2)cc1` [Example 68, N-(4-(4-(3-aminosulfonyl-phenylamino)-7H-pyrrolo[2,3-d]pyrimidin-2-ylamino)phenyl)-N-methylacetamide] showed an IC50 of 100 to 1000 nM.
For `CCOC(=O)CN1C(=O)CCc2cc(Nc3nc(NC4CCC4)c4cc[nH]c4n3)ccc21` [Example 69, Ethyl 2-(6-(4-(cyclobutyamino)-7H-pyrrolo-[2,3-d]pyrimidine-2-ylamino)-2-oxo-3,4-dihydroquinolin-1(2H)-yl)acetate], the IC50 was 10 to 100 nM.
In the case of `O=C(O)CN1C(=O)CCc2cc(Nc3nc(NC4CCC4)c4cc[nH]c4n3)ccc21` [Example 70, 2-(6-(4-(cyclobutyamino)-7H-pyrrolo[2,3-d]pyrimidine-2-ylamino)-2-oxo-3,4-dihydroquinolin-1(2H)-yl)acetic acid], the IC50 is reported as 10 to 100 nM.
In the case of `CN(C)CCNC(=O)CN1C(=O)CCc2cc(Nc3nc(NC4CCC4)c4cc[nH]c4n3)ccc21` [Example 71, 2-(6-(4-(cyclobutyamino)-7H-pyrrolo[2,3-d]pyrimidine-2-ylamino)-2-oxo-3,4-dihydroquinolin-1(2H)-yl)-N-(2-(dimethylamino)ethyl)acetamide], the IC50 is reported as 100 to 1000 nM.
`COC(=O)N(C)c1ccc(Nc2nc(NC3CCC3)c3cc[nH]c3n2)cc1` [Example 72, Methyl 4-(4-(cyclobutylamino)-7H-pyrrolo[2,3-d]pyrimidin-2-ylamino)phenyl(methyl)carbamate] gave an IC50 of 100 to 1000 nM.
With `COC(=O)N(C)c1ccc(Nc2nc(NC3CC3)c3cc[nH]c3n2)cc1` [Example 73] the IC50 was 100 to 1000 nM.
Work on `CN(C(=O)CO)c1ccc(Nc2nc(NC3CCC3)c3cc[nH]c3n2)cc1` [Example 74, N-(4-(4-(cyclobutylamino)-7H-pyrrolo[2,3-d]pyrimidin-2-ylamino)phenyl)-2-hydroxy-N-methylacetamide] yielded an IC50 of 10 to 100 nM.
`CN(C(=O)CO)c1ccc(Nc2nc(NC3CC3)c3cc[nH]c3n2)cc1` [Example 75, N-(4-(4-(cyclopropylamino)-7H-pyrrolo[2,3-d]pyrimidin-2-ylamino)phenyl)-2-hydroxy-N-methylacetamide] gave an IC50 of 10 to 100 nM.
Compound `CS(=O)(=O)Cc1ccc(Nc2nc(NC3CCC3)c3cc[nH]c3n2)cc1` [Example 76] has an IC50 of 100 to 1000 nM.
For `CS(=O)(=O)Cc1cccc(Nc2nc(NC3CCC3)c3cc[nH]c3n2)c1` [Example 77], the IC50 was 100 to 1000 nM.
`CNC(=O)COc1cccc(Nc2nc(Nc3ccc4cn[nH]c4c3)nc3[nH]ccc23)c1` [Example 78] showed an IC50 of 10 to 100 nM.
Work on `Nc1nc(Nc2ccc3cn[nH]c3c2)nc2[nH]ccc12` [Example 79, N^2-(1H-indazol-6-yl)-7H-pyrrolo[2,3-d]pyrimidin-2,4-diamine] yielded an IC50 of 100 to 1000 nM.
Compound `CN(C(=O)C1CC1)c1ccc(Nc2nc(NC3CCC3)c3cc[nH]c3n2)cc1` [Example 80, N-(4-(4-(cyclobutylamino)-7H-pyrrolo[2,3-d]pyrimidin-2-ylamino)phenyl)-N-methylcyclopropanecarboxamide] has an IC50 of 100 to 1000 nM.
With `CN(C(=O)C1CC1)c1ccc(Nc2nc(NC3CC3)c3cc[nH]c3n2)cc1` [Example 81, N-(4-(4-(cyclopropylamino)-7H-pyrrolo[2,3-d]pyrimidin-2-ylamino)phenyl)-N-methylcyclopropanecarboxamide] the IC50 was 100 to 1000 nM.
`CNc1nc(Nc2ccc(N(C)C(=O)C3CC3)cc2)nc2[nH]ccc12` [Example 82, N-(4-(4-(methylamino)-7H-pyrrolo[2,3-d]pyrimidin-2-ylamino)phenyl)-N-methylcyclopropanecarboxamide] gave an IC50 of 100 to 1000 nM.
Work on `NC(=O)CNc1nc(Nc2ccc3cn[nH]c3c2)nc2[nH]ccc12` [Example 83, 2-(2-(1H-indazol-6-ylamino)-7H-pyrrolo[2,3-d]pyrimidin-4-ylamino)acetamide] yielded an IC50 of 100 to 1000 nM.
For `CN(C)CC(=O)N(C)c1ccc(Nc2nc(NC3CCC3)c3cc[nH]c3n2)cc1` [Example 84, N-(4-(4-(cyclobutylamino)-7H-pyrrolo[2,3-d]pyrimidin-2-ylamino)phenyl)-2-(dimethlamino)-N-methylacetamide], the IC50 was 100 to 1000 nM.
Compound `CN(C)CCCNC(=O)c1ccc(Nc2nc(NC3CCC3)c3cc[nH]c3n2)cc1` [Example 85] has an IC50 of 100 to 1000 nM.
For `CN(C(=O)CCO)c1ccc(Nc2nc(NC3CCC3)c3cc[nH]c3n2)cc1` [Example 86, N-(4-(4-(cyclobutylamino)-7H-pyrrolo[2,3-d]pyrimidin-2-ylamino)phenyl)-3-hydroxy-N-methypropanamide], the IC50 was 10 to 100 nM.
With `CN(C(=O)CCO)c1ccc(Nc2nc(NC3CC3)c3cc[nH]c3n2)cc1` [Example 87, N-(4-(4-(cyclopropylamino)-7H-pyrrolo[2,3-d]pyrimidin-2-ylamino)phenyl)-3-hydroxy-N-methypropanamide] the IC50 was 10 to 100 nM.
With `COCCNc1nc(Nc2ccc3cn[nH]c3c2)nc2[nH]ccc12` [Example 89, N^2-(1H-indazol-6-ylamino)-N^4-(2-methoxyethyl)-7H-pyrrolo[2,3-d]pyrimidine-2,4-diamine] the IC50 was 100 to 1000 nM.
With `COCCNc1nc(Nc2ccc(N3CCN(C(C)=O)CC3)cc2)nc2[nH]ccc12` [Example 90, 1-(4-(4-(4-(2-methoxyethylamino)-7H-pyrrolo[2,3-d]pyrimidin-2-ylamino)phenyl)piperazin-1-yl)ethanone] the IC50 was 100 to 1000 nM.
Work on `OCCNc1nc(Nc2ccc3cn[nH]c3c2)nc2[nH]ccc12` [Example 91, N^2-(1H-indazol-6-ylamino)-N^4-(2-hydroxyethyl)-7H-pyrrolo[2,3-d]pyrimidine-2,4-diamine] yielded an IC50 of 10 to 100 nM.
`NCCOCCNc1nc(Nc2ccc3cn[nH]c3c2)nc2[nH]ccc12` [Example 92, N^4-(2-2-(aminoethoxy)ethyl)-N^2-(1H-indazol-6-ylamino)-7H-pyrrolo[2,3-d]pyrimidine-2,4-diamine] gave an IC50 of 10 to 100 nM.
Work on `CC(=O)N1CCN(c2ccc(Nc3nc(NCCOCCN)c4cc[nH]c4n3)cc2)CC1` [Example 93, 1-(4-(4-(4-(2-(2-aminoethoxy)amino)-7H-pyrrolo[2,3-d]pyrimidin-2-ylamino)phenyl)piperazin-1-yl)ethanone] yielded an IC50 of 100 to 1000 nM.
Work on `NCCOCCNc1nc(Nc2ccc(N3CCC[C@H]3C(N)=O)cc2)nc2[nH]ccc12` [Example 94, (S)-1-(4-(4-(2-(2-aminoethoxy)ethylamino)-7H-pyrrolo[2,3-d]pyrimidin-2-ylamino)phenyl)pyrrolidine-2-carboxamide] yielded an IC50 of 100 to 1000 nM.
Work on `CC(=O)N1CCN(c2ccc(Nc3nc(Nc4cccc(C(N)=O)c4)c4cc[nH]c4n3)cc2)CC1` [Example 95A, 3-(2-(4-(4-acetylpiperazin-1-yl)phenylamino)-7H-pyrrolo[2,3-d]pyrimidin-4-ylamino)benzamide] yielded an IC50 of 100 to 1000 nM.
`NC(=O)c1cccc(Nc2nc(Nc3ccc(N4CCNCC4)cc3)nc3[nH]ccc23)c1` [Example 95B, 3-(2-(4-(piperazin-1-yl)phenylamino)-7H-pyrrolo[2,3-d]pyrimidin-4-ylamino)benzamide] showed an IC50 of 100 to 1000 nM.
